In patent US12110293B2, “Substituted triazolo quinoxaline derivatives” (GRÜNENTHAL GMBH, priority 2018, dated 2024):

Target: T1, glucocorticoid receptor (Homo sapiens, UniProt P04150)
T1 construct: expressed in transfected cells
T1 sequence (P04150 524-758 limits assumed): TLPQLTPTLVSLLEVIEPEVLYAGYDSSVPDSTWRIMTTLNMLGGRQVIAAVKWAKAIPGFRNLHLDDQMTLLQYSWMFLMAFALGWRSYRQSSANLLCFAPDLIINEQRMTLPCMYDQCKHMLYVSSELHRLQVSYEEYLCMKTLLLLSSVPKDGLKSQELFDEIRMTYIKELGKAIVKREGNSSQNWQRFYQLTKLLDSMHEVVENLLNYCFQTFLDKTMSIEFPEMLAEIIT
Assay: Agonistic mode of action on the glucocorticoid receptor (CHO-Gal4/GR luciferase reporter cell line)
Assay type: cell-based
Conditions: range class observed in the agonistic assay or the antagonistic assay (CHO-Gal4/GR reporter cells); table does not say which mode applies per example
How it was run: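 CHO cells stably carrying GAL4 DBD–GR ligand-binding-domain fusion and GAL4-UAS firefly luciferase reporter, 5000 cells/well grown 24 h, then compounds added in Opti-MEM at 8 half-log concentrations from 10 μM to 0.003 μM (0.5% DMSO), quadruplicates. Agonist-induced luminescence read on FLIPR Tetra; EC50 calculated.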

IC50 or EC50 (agonist or antagonist mode not specified) [nM]	Structure (SMILES)
100 to 1000	COc1c(-c2cc(C)cc3c2ccn3S(C)(=O)=O)c(F)cc2c1-n1c(C)nnc1C(C)(C)N2 [Example 477, 7-Fluoro-9-methoxy-1,4,4-trimethyl-8-(6-methyl-1-methylsulfonyl-1H-indol-4-yl)-5H-[1,2,4]triazolo[4,3-a]quinoxaline]
< 100	Cc1c(-c2cc(F)cc3c2ccn3C)c(Cl)cc2c1-n1c(C)nnc1C(C)(C)N2 [Example 519, 7-Chloro-8-(6-fluoro-1-methyl-1H-indol-4-yl)-1,4,4,9-tetramethyl-5H-[1,2,4]triazolo[4,3-a]quinoxaline]
< 100	Cc1nnc2n1-c1c(cc(F)c(-c3cc(F)cc4c3ccn4C3CC3)c1C(F)(F)F)NC2(C)C [Example 88, 8-(1-Cyclopropyl-6-fluoro-1H-indol-4-yl)-7-fluoro-1,4,4-trimethyl-9-(trifluoromethyl)-5H-[1,2,4]triazolo[4,3-a]quinoxaline]
< 100	Cc1nnc2n1-c1c(cc(F)c(-c3cccc4c(C5CCC5)c[nH]c34)c1Cl)NC2(C)C [Example 41, 9-chloro-8-(3-cyclobutyl-1H-indol-7-yl)-7-fluoro-1,4,4-trimethyl-4,5-dihydro-[1,2,4]triazolo[4,3-a]quinoxaline]
< 100	Cc1c(-c2cccc3c2ccn3C2CC2)c(F)cc2c1-n1c(C)nnc1C(C)(C)N2 [Example 27, 8-(1-cyclopropyl-1H-indol-4-yl)-7-fluoro-1,4,4,9-tetramethyl-4,5-dihydro-[1,2,4]triazolo[4,3-a]quinoxaline]
100 to 1000	Cc1nnc2n1-c1c(cc(F)c(-c3cccc4c3ccn4S(=O)(=O)C3CC3)c1F)NC2(C)C [Example 205, 8-[1-(Cyclopropylsulfonyl)-1H-indol-4-yl]-7,9-difluoro-1,4,4-trimethyl-5H-[1,2,4]triazolo[4,3-a]quinoxaline]
100 to 1000	COc1cc2c(c(F)c1-c1cc(F)cc3c(C)c[nH]c13)-n1c(C)nnc1C(C)(C)N2 [Example 251, 9-Fluoro-8-(5-fluoro-3-methyl-1H-indol-7-yl)-7-methoxy-1,4,4-trimethyl-5H-[1,2,4]triazolo[4,3-a]quinoxaline]
100 to 1000	COCCn1ccc2c(-c3c(F)cc4c(c3OC)-n3c(C)nnc3C(C)(C)N4)cccc21 [Example 281, 7-Fluoro-9-methoxy-8-[1-(2-methoxy-ethyl)-1H-indol-4-yl]-1,4,4-trimethyl-5H-[1,2,4]triazolo[4,3-a]quinoxaline]
100 to 1000	CCS(=O)(=O)n1ncc2c(-c3c(F)cc4c(c3C(F)(F)F)-n3c(C)nnc3C(C)(C)N4)cc(F)cc21 [Example 448, 8-[1-(Ethylsulfonyl)-6-fluoro-1H-indazol-4-yl]-7-fluoro-1,4,4-trimethyl-9-(trifluoromethyl)-5H-[1,2,4]triazolo[4,3-a]quinoxaline]
1000 to 15000	COCCn1ccc2c(-c3c(C(F)F)cc4c(c3F)-n3c(C)nnc3C(C)(C)N4)cccc21 [Example 295, 7-(Difluoro-methyl)-9-fluoro-8-[1-(2-methoxy-ethyl)-1H-indol-4-yl]-1,4,4-trimethyl-5H-[1,2,4]triazolo[4,3-a]quinoxaline]
100 to 1000	Cc1c[nH]c2c(-c3c(OC(F)F)cc4c(c3F)-n3c(C)nnc3C(C)(C)N4)cccc12 [Example 282, 7-(Difluoro-methoxy)-9-fluoro-1,4,4-trimethyl-8-(3-methyl-1H-indol-7-yl)-5H-[1,2,4]triazolo[4,3-a]quinoxaline]
100 to 1000	Cc1c(-c2cccc3cc[nH]c23)c(F)cc2c1-n1c(C)nnc1C(C)(C)N2 [Example 25, 7-fluoro-8-(1H-indol-7-yl)-1,4,4,9-tetramethyl-4,5-dihydro-[1,2,4]triazolo[4,3-a]quinoxaline]
100 to 1000	COc1cc2c(c(C(F)(F)F)c1-c1cccc3c1ccn3S(C)(=O)=O)-n1c(C)nnc1C(C)(C)N2 [Example 310, 7-Methoxy-1,4,4-trimethyl-8-(1-methylsulfonyl-1H-indol-4-yl)-9-(trifluoromethyl)-5H-[1,2,4]triazolo[4,3-a]quinoxaline]
1000 to 15000	COCCn1ccc2c(-c3c(C)cc4c(c3C)-n3c(C)nnc3C(C)(C)N4)cccc21 [Example 331, 8-[1-(2-Methoxy-ethyl)-1H-indol-4-yl]-1,4,4,7,9-pentamethyl-5H-[1,2,4]triazolo[4,3-a]quinoxaline]
100 to 1000	Cc1nnc2n1-c1c(ccc(-c3cccc4c3ccn4S(C)(=O)=O)c1C(F)F)NC2(C)C [Example 528, 9-(Difluoro-methyl)-1,4,4-trimethyl-8-(1-methylsulfonyl-1H-indol-4-yl)-5H-[1,2,4]triazolo [4,3-a]quinoxaline]
1000 to 15000	Cc1c(-c2cc(F)cc3c2ccn3S(C)(=O)=O)c(C(F)(F)F)cc2c1-n1c(C)nnc1C(C)(C)N2 [Example 83, 8-(6-Fluoro-1-methylsulfonyl-1H-indol-4-yl)-1,4,4,9-tetramethyl-7-(trifluoromethyl)-5H-[1,2,4]triazolo[4,3-a]quinoxaline]
< 100	Cc1c[nH]c2c(-c3c(F)cc4c(c3C3CC3)-n3c(C)nnc3C(C)(C)N4)cccc12 [Example 463, 9-Cyclopropyl-7-fluoro-1,4,4-trimethyl-8-(3-methyl-1H-indol-7-yl)-5H-[1,2,4]triazolo[4,3-a] quinoxaline]
100 to 1000	Cc1nnc2n1-c1c(cc(F)c(-c3cccc4c3ccn4C)c1C(F)F)NC2(C)C [Example 481, 9-(Difluoro-methyl)-7-fluoro-1,4,4-trimethyl-8-(1-methyl-1H-indol-4-yl)-5H-[1,2,4]triazolo[4,3-a] quinoxaline]
1000 to 15000	Cc1cc2c(c(F)c1-c1cc(F)cc3c1ccn3S(C)(=O)=O)-n1c(C)nnc1C(C)(C)N2 [Example 332, 9-Fluoro-8-(6-fluoro-1-methylsulfonyl-1H-indol-4-yl)-1,4,4,7-tetramethyl-5H-[1,2,4] triazolo[4,3-a]quinoxaline]
< 100	CC#Cc1c[nH]c2c(-c3c(F)cc4c(c3C)-n3c(C)nnc3C(C)(C)N4)cccc12 [Example 28, 7-fluoro-1,4,4,9-tetramethyl-8-(3-(prop-1-yn-1-yl)-1H-indol-7-yl)-4,5-dihydro-[1,2,4]triazolo[4,3-a]quinoxaline]
1000 to 15000	COCCn1c(C(F)(F)F)cc2c(-c3c(F)cc4c(c3F)-n3c(C)nnc3C(C)(C)N4)cccc21 [Example 289, 7,9-Difluoro-8-[1-(2-methoxy-ethyl)-2-(trifluoromethyl)-1H-indol-4-yl]-1,4,4-trimethyl-5H-[1,2,4]triazolo[4,3-a]quinoxaline]
< 100	Cc1c(-c2cccc3c(C)c[nH]c23)c(Cl)cc2c1-n1c(C)nnc1C(C)(C)N2 [Example 358, 7-Chloro-1,4,4,9-tetramethyl-8-(3-methyl-1H-indol-7-yl)-5H-[1,2,4]triazolo[4,3-a]quinoxaline]
